Common to all, as to experiment: KINOMEscan (ScanMAX) kinase profiling
Type in all cases: binding

Experiment [1] addresses T1, panel of 468 kinases (Homo sapiens, UniProt O00329).
T1 construct: purchased KINOMEscan (ScanMAX) service
T1 sequence (O00329 1-1044): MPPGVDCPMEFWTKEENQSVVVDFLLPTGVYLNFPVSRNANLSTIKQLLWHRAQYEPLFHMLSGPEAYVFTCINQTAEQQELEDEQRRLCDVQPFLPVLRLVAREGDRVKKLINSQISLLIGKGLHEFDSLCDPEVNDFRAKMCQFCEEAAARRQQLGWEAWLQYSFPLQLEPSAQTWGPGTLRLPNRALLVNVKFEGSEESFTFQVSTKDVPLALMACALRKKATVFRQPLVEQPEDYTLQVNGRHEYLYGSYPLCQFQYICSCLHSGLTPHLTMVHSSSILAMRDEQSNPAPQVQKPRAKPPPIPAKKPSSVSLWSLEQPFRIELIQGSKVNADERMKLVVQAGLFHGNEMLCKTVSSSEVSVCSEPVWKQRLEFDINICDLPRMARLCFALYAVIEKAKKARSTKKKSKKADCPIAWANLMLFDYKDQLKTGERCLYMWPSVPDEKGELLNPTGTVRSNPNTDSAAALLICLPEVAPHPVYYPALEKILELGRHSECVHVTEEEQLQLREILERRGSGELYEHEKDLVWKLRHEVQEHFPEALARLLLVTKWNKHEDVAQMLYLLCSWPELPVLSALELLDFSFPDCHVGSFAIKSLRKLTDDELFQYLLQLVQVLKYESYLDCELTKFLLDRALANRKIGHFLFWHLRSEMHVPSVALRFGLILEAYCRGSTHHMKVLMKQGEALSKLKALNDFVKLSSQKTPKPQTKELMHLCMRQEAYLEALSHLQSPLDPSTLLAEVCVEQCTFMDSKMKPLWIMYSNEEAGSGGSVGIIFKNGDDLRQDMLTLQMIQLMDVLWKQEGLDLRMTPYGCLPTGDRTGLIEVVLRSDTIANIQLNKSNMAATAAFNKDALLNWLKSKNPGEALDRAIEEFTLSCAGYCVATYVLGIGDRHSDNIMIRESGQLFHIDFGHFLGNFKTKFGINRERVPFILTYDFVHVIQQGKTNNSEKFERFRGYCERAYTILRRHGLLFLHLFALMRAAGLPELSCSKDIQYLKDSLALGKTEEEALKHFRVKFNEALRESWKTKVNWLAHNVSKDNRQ
The settings on record: PIK3CD; 1 μM; read-out: % control. As for the experimental part: (§1) The kinase selectivity of inventive compounds 12, 75, and 77 was evaluated by KINOMEscan®. KINOMEscan® (ScanMAX™) analysis was performed against a near comprehensive panel of 468 kinases. The control percentage (% control) for inventive compounds at 1 μM in DMSO was determined by Equation 1: % control=(inventive compound−positive control)/(negative control−positive control)×100%, Equation 1
(§2) wherein the positive control is a compound with a % control value of 0% relative light units (RLU), and the negative control (i.e., DMSO) has % control value of 100% RLU. The enzyme selectivity in the present invention is defined as follows: inventive compounds are considered active for an enzyme when the observed % control is less than 35% (<35%).

Experiment [2] concerns the target T2, panel of 468 kinases (Homo sapiens, UniProt Q9BX84).
T2 construct: purchased KINOMEscan (ScanMAX) service
The settings on record: TRPM6; 1 μM; read-out: % control. The protocol: as §1, §2

Experiment [3] addresses T3, panel of 468 kinases (Homo sapiens, UniProt Q96J92).
T3 construct: purchased KINOMEscan (ScanMAX) service
The settings on record: WNK4; 1 μM; read-out: % control. As for the experimental part: as §1, §2

Experiment [4] deals with T4, panel of 468 kinases (Homo sapiens, UniProt Q9H2X6).
T4 construct: purchased KINOMEscan (ScanMAX) service
The settings on record: HIPK2; 1 μM; read-out: % control. The protocol:
as §1, §2

The target of experiment [5] is T5, panel of 468 kinases (Homo sapiens, UniProt O00444).
T5 construct: purchased KINOMEscan (ScanMAX) service
T5 sequence (O00444 1-970): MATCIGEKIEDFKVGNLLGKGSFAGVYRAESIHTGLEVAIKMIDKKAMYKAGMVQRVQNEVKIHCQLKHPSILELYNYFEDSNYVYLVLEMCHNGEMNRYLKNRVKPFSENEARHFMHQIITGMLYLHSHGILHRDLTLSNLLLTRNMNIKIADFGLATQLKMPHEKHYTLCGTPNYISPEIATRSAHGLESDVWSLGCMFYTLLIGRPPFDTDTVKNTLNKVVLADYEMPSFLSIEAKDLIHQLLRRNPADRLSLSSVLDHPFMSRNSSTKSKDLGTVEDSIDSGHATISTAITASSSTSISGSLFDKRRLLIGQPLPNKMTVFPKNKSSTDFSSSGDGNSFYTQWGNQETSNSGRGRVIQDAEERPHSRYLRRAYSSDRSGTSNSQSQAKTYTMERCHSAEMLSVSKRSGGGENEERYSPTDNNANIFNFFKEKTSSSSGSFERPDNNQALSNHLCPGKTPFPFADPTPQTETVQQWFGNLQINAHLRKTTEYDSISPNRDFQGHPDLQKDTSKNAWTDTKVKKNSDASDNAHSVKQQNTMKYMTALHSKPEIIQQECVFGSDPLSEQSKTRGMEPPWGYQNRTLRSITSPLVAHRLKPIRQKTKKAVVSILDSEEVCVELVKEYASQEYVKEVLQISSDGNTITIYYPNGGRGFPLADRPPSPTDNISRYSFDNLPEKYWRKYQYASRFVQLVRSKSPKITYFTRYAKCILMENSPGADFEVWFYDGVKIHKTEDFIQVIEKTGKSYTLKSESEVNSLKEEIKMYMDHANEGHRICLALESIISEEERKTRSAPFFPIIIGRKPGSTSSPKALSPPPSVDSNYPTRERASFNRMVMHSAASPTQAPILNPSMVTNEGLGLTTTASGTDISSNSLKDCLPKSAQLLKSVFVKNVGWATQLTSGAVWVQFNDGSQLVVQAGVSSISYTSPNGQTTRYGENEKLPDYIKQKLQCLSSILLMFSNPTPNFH
The settings on record: PLK4; 1 μM; read-out: % control. As for the experimental part: as §1, §2

Experiment [6] has as its target T6, panel of 468 kinases (Homo sapiens, UniProt Q9HAZ1).
T6 construct: purchased KINOMEscan (ScanMAX) service
The settings on record: CLK4; 1 μM; read-out: % control. The protocol: as §1, §2

Experiment [7] concerns the target T7, panel of 468 kinases (Homo sapiens, UniProt Q16620).
T7 construct: purchased KINOMEscan (ScanMAX) service
The settings on record: TRKB; 1 μM; read-out: % control. The protocol: as §1, §2

T3 sequence (Q96J92 whole entry): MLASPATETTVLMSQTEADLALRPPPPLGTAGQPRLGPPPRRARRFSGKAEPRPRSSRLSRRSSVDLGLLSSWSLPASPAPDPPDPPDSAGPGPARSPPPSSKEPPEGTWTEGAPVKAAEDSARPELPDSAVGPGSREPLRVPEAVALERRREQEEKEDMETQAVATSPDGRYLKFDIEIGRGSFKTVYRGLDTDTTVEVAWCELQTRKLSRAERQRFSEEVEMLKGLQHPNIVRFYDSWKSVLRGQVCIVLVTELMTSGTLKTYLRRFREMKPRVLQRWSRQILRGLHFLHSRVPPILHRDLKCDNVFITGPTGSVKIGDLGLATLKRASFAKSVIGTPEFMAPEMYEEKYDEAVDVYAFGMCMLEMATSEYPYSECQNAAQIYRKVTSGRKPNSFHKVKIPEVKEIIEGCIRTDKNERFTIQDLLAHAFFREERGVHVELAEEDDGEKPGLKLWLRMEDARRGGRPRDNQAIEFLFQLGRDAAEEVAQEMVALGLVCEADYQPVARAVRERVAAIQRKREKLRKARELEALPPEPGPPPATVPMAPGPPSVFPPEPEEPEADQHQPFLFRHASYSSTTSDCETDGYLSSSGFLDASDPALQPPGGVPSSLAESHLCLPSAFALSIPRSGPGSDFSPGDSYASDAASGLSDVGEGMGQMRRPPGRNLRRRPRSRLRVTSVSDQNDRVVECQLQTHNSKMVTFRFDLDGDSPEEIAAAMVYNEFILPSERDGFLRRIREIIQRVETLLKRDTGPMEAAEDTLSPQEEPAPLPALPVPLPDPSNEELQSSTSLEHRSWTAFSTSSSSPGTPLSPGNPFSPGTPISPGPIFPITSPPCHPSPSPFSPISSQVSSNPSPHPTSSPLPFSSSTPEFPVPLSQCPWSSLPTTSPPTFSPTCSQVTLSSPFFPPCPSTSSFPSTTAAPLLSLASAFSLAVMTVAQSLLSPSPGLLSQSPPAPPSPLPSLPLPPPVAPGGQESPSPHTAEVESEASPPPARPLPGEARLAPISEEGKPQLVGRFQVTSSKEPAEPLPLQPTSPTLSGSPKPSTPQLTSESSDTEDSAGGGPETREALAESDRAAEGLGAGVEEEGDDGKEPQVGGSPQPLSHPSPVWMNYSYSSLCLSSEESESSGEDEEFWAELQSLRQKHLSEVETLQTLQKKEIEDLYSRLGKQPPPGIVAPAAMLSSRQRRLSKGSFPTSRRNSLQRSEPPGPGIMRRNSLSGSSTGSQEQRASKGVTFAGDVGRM
T2 sequence (Q9BX84 whole entry): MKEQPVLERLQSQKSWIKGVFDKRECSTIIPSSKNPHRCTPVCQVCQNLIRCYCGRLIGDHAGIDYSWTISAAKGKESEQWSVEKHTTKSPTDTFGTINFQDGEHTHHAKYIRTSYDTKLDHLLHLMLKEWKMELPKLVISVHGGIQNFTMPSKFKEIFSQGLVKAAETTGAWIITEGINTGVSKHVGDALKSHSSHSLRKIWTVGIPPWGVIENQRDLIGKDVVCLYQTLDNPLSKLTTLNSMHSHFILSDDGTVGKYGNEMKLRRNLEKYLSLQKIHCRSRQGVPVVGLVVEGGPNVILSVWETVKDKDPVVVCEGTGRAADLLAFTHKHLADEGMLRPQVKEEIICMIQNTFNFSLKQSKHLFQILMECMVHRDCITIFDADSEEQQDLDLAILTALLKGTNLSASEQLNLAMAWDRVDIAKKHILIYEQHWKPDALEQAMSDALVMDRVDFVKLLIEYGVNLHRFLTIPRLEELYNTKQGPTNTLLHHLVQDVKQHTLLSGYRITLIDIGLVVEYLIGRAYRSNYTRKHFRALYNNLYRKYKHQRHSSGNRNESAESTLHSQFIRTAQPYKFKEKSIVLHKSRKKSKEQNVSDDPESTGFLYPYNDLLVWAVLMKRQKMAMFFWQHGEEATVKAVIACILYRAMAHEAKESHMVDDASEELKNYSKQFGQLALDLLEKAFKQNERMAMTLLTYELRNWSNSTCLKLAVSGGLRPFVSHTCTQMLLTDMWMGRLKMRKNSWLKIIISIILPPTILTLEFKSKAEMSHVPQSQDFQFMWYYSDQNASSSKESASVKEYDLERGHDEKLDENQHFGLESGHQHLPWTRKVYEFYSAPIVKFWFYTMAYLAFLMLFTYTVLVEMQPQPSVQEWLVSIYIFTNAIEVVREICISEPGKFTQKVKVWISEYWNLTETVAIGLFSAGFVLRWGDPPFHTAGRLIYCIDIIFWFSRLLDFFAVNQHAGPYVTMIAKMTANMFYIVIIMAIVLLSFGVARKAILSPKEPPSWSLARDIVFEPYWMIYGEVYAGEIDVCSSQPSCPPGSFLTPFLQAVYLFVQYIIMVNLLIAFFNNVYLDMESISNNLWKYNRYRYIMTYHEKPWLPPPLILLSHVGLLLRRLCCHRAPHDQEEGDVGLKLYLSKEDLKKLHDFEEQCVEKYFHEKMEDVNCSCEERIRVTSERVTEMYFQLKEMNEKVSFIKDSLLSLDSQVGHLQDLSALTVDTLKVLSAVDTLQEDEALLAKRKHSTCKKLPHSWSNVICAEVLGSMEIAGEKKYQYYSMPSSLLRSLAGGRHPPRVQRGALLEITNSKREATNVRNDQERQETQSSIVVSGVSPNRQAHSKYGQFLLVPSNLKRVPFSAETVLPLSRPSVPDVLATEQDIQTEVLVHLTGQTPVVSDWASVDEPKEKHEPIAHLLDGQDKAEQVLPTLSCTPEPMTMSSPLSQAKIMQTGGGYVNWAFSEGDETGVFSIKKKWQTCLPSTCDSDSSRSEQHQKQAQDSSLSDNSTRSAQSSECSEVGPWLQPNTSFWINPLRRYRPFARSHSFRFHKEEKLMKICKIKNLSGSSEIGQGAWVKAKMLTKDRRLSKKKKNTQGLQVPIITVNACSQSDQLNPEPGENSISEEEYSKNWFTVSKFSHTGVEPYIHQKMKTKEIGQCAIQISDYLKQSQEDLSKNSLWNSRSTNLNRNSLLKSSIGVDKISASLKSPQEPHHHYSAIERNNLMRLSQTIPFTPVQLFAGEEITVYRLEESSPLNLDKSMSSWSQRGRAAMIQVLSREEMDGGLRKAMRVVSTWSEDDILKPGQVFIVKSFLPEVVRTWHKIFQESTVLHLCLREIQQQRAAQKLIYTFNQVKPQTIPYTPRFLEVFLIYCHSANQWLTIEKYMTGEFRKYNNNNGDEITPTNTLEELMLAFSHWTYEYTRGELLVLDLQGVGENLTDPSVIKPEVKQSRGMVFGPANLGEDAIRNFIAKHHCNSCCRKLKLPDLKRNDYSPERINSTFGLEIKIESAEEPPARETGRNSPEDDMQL
T4 sequence (Q9H2X6 whole entry): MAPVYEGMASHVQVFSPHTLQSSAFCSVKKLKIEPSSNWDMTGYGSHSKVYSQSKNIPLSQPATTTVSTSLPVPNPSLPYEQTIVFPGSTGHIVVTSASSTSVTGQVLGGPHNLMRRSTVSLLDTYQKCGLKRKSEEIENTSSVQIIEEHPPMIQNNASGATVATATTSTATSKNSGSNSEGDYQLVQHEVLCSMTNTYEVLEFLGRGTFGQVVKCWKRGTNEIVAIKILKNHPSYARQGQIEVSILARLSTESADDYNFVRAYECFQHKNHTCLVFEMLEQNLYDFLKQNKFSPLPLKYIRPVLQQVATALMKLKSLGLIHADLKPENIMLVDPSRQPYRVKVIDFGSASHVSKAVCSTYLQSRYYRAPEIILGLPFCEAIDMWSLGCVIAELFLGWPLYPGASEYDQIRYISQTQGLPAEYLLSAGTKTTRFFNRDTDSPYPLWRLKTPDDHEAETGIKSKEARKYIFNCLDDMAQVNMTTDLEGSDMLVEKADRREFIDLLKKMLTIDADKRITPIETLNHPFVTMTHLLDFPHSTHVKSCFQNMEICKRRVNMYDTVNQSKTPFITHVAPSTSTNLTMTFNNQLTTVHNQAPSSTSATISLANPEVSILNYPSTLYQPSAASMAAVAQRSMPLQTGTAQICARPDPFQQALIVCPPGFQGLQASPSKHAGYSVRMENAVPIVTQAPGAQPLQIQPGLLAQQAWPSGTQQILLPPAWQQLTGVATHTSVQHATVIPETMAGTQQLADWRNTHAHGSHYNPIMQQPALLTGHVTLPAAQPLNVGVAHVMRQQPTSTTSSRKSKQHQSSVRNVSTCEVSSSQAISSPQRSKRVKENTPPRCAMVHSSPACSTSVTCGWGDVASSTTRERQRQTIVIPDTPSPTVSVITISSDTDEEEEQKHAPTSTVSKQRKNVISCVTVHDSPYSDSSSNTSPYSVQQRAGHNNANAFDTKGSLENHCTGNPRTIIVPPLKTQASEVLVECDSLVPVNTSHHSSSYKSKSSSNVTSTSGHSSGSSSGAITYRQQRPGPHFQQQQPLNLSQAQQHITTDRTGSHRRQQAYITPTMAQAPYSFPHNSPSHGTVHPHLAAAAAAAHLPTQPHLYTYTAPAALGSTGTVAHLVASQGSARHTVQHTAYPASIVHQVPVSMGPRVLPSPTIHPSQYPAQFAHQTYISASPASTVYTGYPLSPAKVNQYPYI
T6 sequence (Q9HAZ1 whole entry): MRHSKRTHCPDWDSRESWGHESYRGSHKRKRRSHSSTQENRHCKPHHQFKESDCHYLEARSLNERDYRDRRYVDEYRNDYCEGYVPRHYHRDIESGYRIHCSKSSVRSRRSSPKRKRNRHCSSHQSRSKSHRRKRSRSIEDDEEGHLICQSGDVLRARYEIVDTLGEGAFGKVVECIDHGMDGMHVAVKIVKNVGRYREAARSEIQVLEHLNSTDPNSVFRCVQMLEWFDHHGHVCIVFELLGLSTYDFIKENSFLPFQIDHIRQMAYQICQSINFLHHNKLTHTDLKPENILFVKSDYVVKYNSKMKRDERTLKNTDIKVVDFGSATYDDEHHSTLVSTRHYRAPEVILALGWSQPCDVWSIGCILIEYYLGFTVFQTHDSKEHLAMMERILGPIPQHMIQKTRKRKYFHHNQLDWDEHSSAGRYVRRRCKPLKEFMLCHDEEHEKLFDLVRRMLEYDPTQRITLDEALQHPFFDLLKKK

On to `CNc1nc(Nc2ccc(S(=O)(=O)N3CCC(N4CCOCC4)CC3)cc2OC)nc2[nH]cc(Cl)c12` [Compound 12, 5-chloro-N2-(2-methoxy-4-((4-morpholinopiperidin-1-yl)sulfonyl)phenyl)-N4-methyl-7H-pyrrolo[2,3-d]pyrimidine-2,4-diamine], for which the remaining binding at 1 µM at panel of 468 kinases [1] worked out at 96%; at panel of 468 kinases [2] it was 79%; at panel of 468 kinases [3], 61%; at panel of 468 kinases [4], 100%; on panel of 468 kinases [5] it was 22%; on panel of 468 kinases [6], 0.75%. Moreover, the remaining binding at 1 µM on panel of 468 kinases [7] was determined as 100%.
Regarding `CNc1nc(Nc2ccc(P3(=O)CCN(C4CCOCC4)CC3)cc2OC)nc2[nH]cc(Cl)c12` [Compound 77, 4-(4-((5-chloro-4-(methylamino)-7H-pyrrolo[2,3-d]pyrimidin-2-yl)amino)-3-methoxyphenyl)-1-(tetrahydro-2H-pyran-4-yl)-1,4-azaphosphinane 4-oxide], the remaining binding at 1 µM on panel of 468 kinases [1] turned out to be 92%; on panel of 468 kinases [2], 88%; at panel of 468 kinases [3], 66%; on panel of 468 kinases [4], 95%; on panel of 468 kinases [5] it was 15%; on panel of 468 kinases [6] it was 1.2%. The remaining binding at 1 µM on panel of 468 kinases [7] was 100%.
For the compound `CNc1nc(Nc2ccc(C(=O)N3CCC(N4CCOCC4)CC3)c3c2OCO3)nc2[nH]cc(Cl)c12` [Compound 75, (7-((5-chloro-4-(methylamino)-7H-pyrrolo[2,3-d]pyrimidin-2-yl)amino)benzo[d][1,3]dioxol-4-yl)(4-morpholinopiperidin-1-yl)methanone], the remaining binding at 1 µM on panel of 468 kinases [1] was 96%; on panel of 468 kinases [2], 85%; on panel of 468 kinases [3], 66%; on panel of 468 kinases [4], 66%; at panel of 468 kinases [5], 9.6%; on panel of 468 kinases [6] it was 0.7%. The remaining binding at 1 µM at panel of 468 kinases [7] is 100%.
